The values that follow come from patent publication US10912787B2, “Use of N-acetylglucosamine and derivatives thereof to treat muscle disorders” (PUREPHARM INC., priority 2017, dated 2021).

“Also recorded” adds a separate entry of the source.

For data set [1], the system named is C2C12 cells. Description: Statin-reduced myogenesis of C2C12 cells with or without Simvastatin. The data set is classed as cell-based, murine. The following applies: C2C12, 44 hours; for myoblast differentiation / myogenesis in the presence of Simvastatin: FIG. 5. The source says: It is estimated that 10-15% of individuals who take statins-related compounds develop statin-related muscle adverse effects, ranging from mild myalgia to more severed muscle symptoms while the mechanism of statin-induced myopathy remains undetermined. In vitro myogenesis, statins-related compounds reduce in vitro myogenesis and stable adhesion of myotubes. Thus, it was examined whether GlcNAc treatment has any significant effect on the statin-reduced myogenesis. Myogenesis of murine myoblast cells, C2C12 cells was induced by replacing the medium from growing medium to differentiation medium as above DMEM in the presence or absence of different doses of N-acetylglucosamine (GlcNAc) with or without Simvastatin for 44 hours. Cells were then fixed in 3.8% paraformaldehyde containing phosphate buffered saline (PBS) for 15 min. Then cells were permeabilized by PBS-0.25% Triton X100 for 5 min. After washed with PBS, the cells were incubated with anti-MHC antibody (Clone MF-20, 2.5 μg/ml) in the blocking agents (Vectors laboratories) for an hour, followed by anti-mouse antibody labelled with Alex 488. Then nuclei of the cells were stained with DAPI. Fluorescent images were taken through 20× objectives by using Queorum WaveFX spinning Disc confocal system.

For data set [2], the system named is C2C12 cells. Description: Myogenesis of murine myoblast C2C12 cells (MHC-positive multinucleated myotubes, immunofluorescence). The note with it: for myogenesis (GlcNAc vs glucosamine): C2C12, different doses, FIGS. 4A-4F; for number of multinuclear MHC expressing myotubes: C2C12, differentiation stopped after 72 hours. The data set is classed as cell-based. The protocol: (§1) N-Acetylglucosamine promotes myogenesis of murine myoblasts: Myogenesis of murine myoblast cells, C2C12 cells was induced by replacing the medium from growing medium (DMEM supplemented with 10% fetal calf serum) to DMEM supplemented with 1% horse serum, insulin (10 μg/ml), transferrin (5.5 μg/ml) and selenium (5 ng/ml) in the presence or absence of different doses of N-acetylglucosamine (GlcNAc). This condition induces the differentiation of myoblasts, including the induction of the synthesis of myosine heavy chains (MHC). Then myoblasts start fusing with each other to form myotubes, which are multinucleated. Cells were fixed in 3.8% paraformaldehyde containing phosphate buffered saline (PBS) for 15 min. Then cells were permeabilized by PBS-0.25% Triton X100 for 5 min. After washed with PBS, the cells were incubated with anti-MHC antibody (Clone MF-20, 2.5 μg/ml) in the blocking agents (Vectors laboratories) for an hour, followed by anti-mouse antibody labelled with Alex 488. Then nuclei of the cells were stained with DAPI. Fluorescent images were taken through 20× objectives by using Queorum WaveFX spinning Disc confocal system.
In the condition shown in FIG. 1, the myogenesis was stopped after the differentiation for 72 hours, which was 18 hours after the presence of myotubes became detectable. […] In FIGS. 2A and 2B, the differentiation was stopped at 62 hours. Fields of view (5×5 FOVs) are stitched together and shown here. One FOV is 0.533 mm square. White color is MHC-positive myotube cells.
as §1, with “Glucosamine is a commercially available supplement, which has been claimed to reduce arthritic pain, although there is any scientific evidence to support this claim. It was examined whether glucosamine has any significant effect on the myogenesis.” for “N-Acetylglucosamine promotes myogenesis of murine myoblasts:”, “(GlcNAc) or glucosamine.” for “(GlcNAc).”, “fusing” for “fusing with”, “PBS—0.25%” for “PBS-0.25%”

Data set [3] concerns C2C12 cells. Described as above. The following applies: FIG. 4. In kind it is cell-based.
In data set [4] the test system is Myoblasts derived from a patient of DM1. Description: Myogenesis of myoblasts derived from a patient of myotonic dystrophy 1. The data set is classed as cell-based, human. The note with it: after 120 hours of differentiation, FIG. 3. The protocol: It is known that myogenesis is impaired in myotonic dystrophy 1 (DM1). The therapeutic potential of GlcNAc on this impaired myogenesis was thus tested. Myoblasts derived from a patient of DM1 were grown in DMEM supplemented with 20% fetal calf serum till the density of cells reached to 90% confluency. Then, the differentiation was induced by changing the medium to DMEM supplemented with 1% fetal calf serum, 10 μg/ml insulin, and 100 μg/ml apotransferrin. After 120 hours, cells were fixed and MHC in the cells were visualized by the method described in Example 1.

The conditions of data set [5]: human, long-term oral administration; cited from earlier work.

In the case of `CCC(C)(C)C(=O)O[C@H]1C[C@@H](C)C=C2C=C[C@H](C)[C@H](CC[C@@H]3C[C@@H](O)CC(=O)O3)[C@H]21` [Simvastatin, reference compound], the “formation of myotube in the presence of Simvastatin alone” value in data set [1] is “the formation of myotube was reduced”.

Consider `N[C@H]1C(O)O[C@H](CO)[C@@H](O)[C@@H]1O` (stereo partly drawn) [glucosamine], for which the “myogenesis (GlcNAc vs glucosamine)” value in data set [2] is “fails to promote the myogenesis; also recorded: inhibition of myogenesis; also recorded: fails to induce any positive impact on the myogenesis”. Moreover, the cell toxicity result in data set [3] was “showed toxicity to the myotubes; also recorded: induce cell toxicity”.

Consider `CC(=O)N[C@H]1C(O)O[C@H](CO)[C@@H](O)[C@@H]1O` (stereo partly drawn) [GlcNAc, N-acetylglucosamine], for which the “myogenesis (GlcNAc vs glucosamine)” value in data set [2] is given as “Promotes the Myogenesis”; in data set [2] (listed as N-acetylglucosamine), “increases the formation of myotubes”. Further, the “number of multinuclear MHC expressing myotubes” value in data set [2] (FIG. 1) was “increases the number of multinuclear MHC expressing myotubes”; in data set [2] (FIG. 1, listed as N-acetylglucosamine), “increase of myogenesis of mouse myoblasts”. The “number, length and width of myotubes” value in data set [2] (C2C12, differentiation stopped at 62 hours, FIGS. 2A and 2B) was “increased not only the number of multinuclear MHC expressing myotubes but also the length and width of the myotubes”. Moreover, in data set [2] (dose of 0.2 mM, 72 hours, FIG. 1), the “myogenesis of C2C12 cells” value was “promotes myogenesis of C2C12 cells”. Besides, the “myogenesis of human myoblasts of DM1” value is reported as “promote the myogenesis of human myoblasts of DM1” in data set [4] and “increase of the myogenesis of human myoblasts” in data set [4] (listed as N-acetylglucosamine). Moreover, the “myoblast differentiation / myogenesis in the presence of Simvastatin” value is on record as “renders myoblast appropriate differentiation even in the presence of Simvastatin” in data set [1] and “restores the myogenesis that is partially impaired by statin” in data set [1] (listed as N-acetylglucosamine). In addition, the adhesion of myotubes result in data set [1] (with Simvastatin, preliminary data not shown) is on record as “stabilizes the adhesion of myotubes”. The adverse effect entry in data set [5] is reported as “not to have any significant adverse effect”.
